This is an account of results in PubChem BioAssay (NCI).

As a reminder, the TGI is the concentration giving total growth inhibition. The low end stands for greater sensitivity of the cells, the high end for lower sensitivity of the cells. Usually GI50 stands for the concentration that inhibits growth by half.

Each structure is given as a SMILES string.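 Growth conditions: 96-well plates. Treatment: test compound, 48 hours, 5 concentrations. Analysis: linear interpolation between bracketing concentrations; unreached endpoints set to highest concentration. GI50 marks 50% less growth. TGI: total growth inhibition.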

Among the test systems are HCC-2998 colon; HCT-116 colon; MDA-MB-435; RXF 393 renal; SNB-19 CNS; UACC-257 melanoma; LOX IMVI melanoma.
What all share (assay): DTP human tumour cell line panel, 48 h

For the compound `O=C1NC(NNc2ccccc2)=N/C1=C\c1ccco1`, the TGI in the test on HCC-2998 colon was 33 µM; in the test with HCT-116 colon, 37.9 µM; with MDA-MB-435 it was 47.6 µM; in the test with RXF 393 renal, 28.6 µM; in the test with SNB-19 CNS, greater than 100 µM; with UACC-257 melanoma it was 63.5 µM.

On to `CC(=O)c1ccc(Nc2nc3ccccc3c3occc23)cc1`, for which the total growth inhibition concentration (TGI) with HCC-2998 colon is 28.4 µM; in the test on HCT-116 colon, 27.8 µM; in the test with LOX IMVI melanoma it was 61.7 µM; in the test with MDA-MB-435, 9.69 µM; with SNB-19 CNS, greater than 100 µM; with UACC-257 melanoma, 31.6 µM.

Consider `COc1cc2c(cc1OC)-c1cc3cc(OC)c(OC)cc3c(C)[n+]1CC2` (tested in a mixture with another compound), for which the TGI was 62.5 µM in the test with HCC-2998 colon; greater than 100 µM with HCT-116 colon; greater than 100 µM in the test with LOX IMVI melanoma; greater than 100 µM with MDA-MB-435; greater than 100 µM with RXF 393 renal; greater than 100 µM in the test with SNB-19 CNS. Besides, the TGI in the test on UACC-257 melanoma worked out at 46.3 µM.

As to `CCOC(=O)NC(C(F)(F)F)(C(F)(F)F)P(=O)(OCC)OCC`, the TGI was greater than 100 µM in the test with HCC-2998 colon; greater than 100 µM with HCT-116 colon; greater than 100 µM in the test with LOX IMVI melanoma; greater than 100 µM in the test with MDA-MB-435; 44.1 µM in the test with RXF 393 renal; greater than 100 µM in the test on SNB-19 CNS.

On to `Cn1cc(-c2csc(-c3cn(CCCN4CCCCC4)c4ccc(Br)cc34)n2)c2cccnc21`, for which the GI50 with HCC-2998 colon was 1.86 µM; in the test on MDA-MB-435 it was 1.74 µM; in the test on RXF 393 renal, 1.64 µM; in the test with SNB-19 CNS, 1.83 µM; with UACC-257 melanoma, 1.8 µM. In addition, the TGI turned out to be 3.61 µM with HCC-2998 colon; 3.16 µM with MDA-MB-435; 3.19 µM in the test with RXF 393 renal; 3.31 µM with SNB-19 CNS; 3.43 µM with UACC-257 melanoma.

With `Cc1ccc(C(CCO)CCO)nc1`, the TGI in the test with HCC-2998 colon, in the test on HCT-116 colon, in the test with LOX IMVI melanoma, with MDA-MB-435, with RXF 393 renal and in the test with SNB-19 CNS was greater than 100 µM in each case. This compound also had a TGI with UACC-257 melanoma greater than 100 µM.

As to `CN(C)C1(N(C)C)Oc2c(c(=O)n(C)c(=O)n2C)C(c2ccc(F)cc2)C1(F)F` (stereo not drawn), the TGI with HCC-2998 colon, in the test with HCT-116 colon, in the test with LOX IMVI melanoma, in the test on MDA-MB-435, in the test on RXF 393 renal and in the test with SNB-19 CNS was greater than 100 µM each time. In addition, the TGI in the test with UACC-257 melanoma is greater than 100 µM.

For `CCCCCCc1cc2cc(-c3cn4ccccc4n3)c(=O)oc2cc1O`, the TGI is 47.2 µM with HCC-2998 colon; 16.9 µM in the test with HCT-116 colon; greater than 36.9 µM in the test with LOX IMVI melanoma; 20.6 µM with MDA-MB-435; 15.1 µM with RXF 393 renal; 26 µM in the test with SNB-19 CNS. Further, in the test on UACC-257 melanoma, the TGI came out at 50.9 µM.

In the case of `O=C(NCCCN1CCN(CCCNC(=O)c2cc(-c3ccccc3)nc3ccccc23)CC1)c1cc(-c2ccccc2)nc2ccccc12`, the TGI in the test on HCC-2998 colon is 6.06 µM; in the test on HCT-116 colon it was greater than 100 µM; in the test on LOX IMVI melanoma, 10.6 µM; with MDA-MB-435 it was 14.7 µM; in the test on RXF 393 renal it was greater than 60 µM; with SNB-19 CNS it was 33 µM. In addition, the total growth inhibition concentration (TGI) in the test on UACC-257 melanoma worked out at 5.45 µM.

In the case of `Cn1c2ccccc2c(=NNc2ccc(S(=O)(=O)N=C(N)N)cc2)c2ccccc21`, the TGI with HCC-2998 colon worked out at 19.8 µM; in the test with HCT-116 colon, 17 µM; in the test on LOX IMVI melanoma, 16.9 µM; in the test on MDA-MB-435 it was 23.7 µM; with RXF 393 renal it was 10.8 µM; in the test with SNB-19 CNS it was 22.6 µM. Also, the TGI in the test on UACC-257 melanoma came out at 34.9 µM.

For `CCOC(=O)c1c(Br)c(-c2ccc([N+](=O)[O-])cc2)c(Br)n1C`, the TGI in the test on HCC-2998 colon, in the test with HCT-116 colon, with LOX IMVI melanoma, in the test with MDA-MB-435, in the test with SNB-19 CNS and in the test on UACC-257 melanoma was greater than 10 µM in each case.

Take `CC(Cn1c(=O)oc2ccccc21)N(C)C` (stereo not drawn): the TGI in the test on HCT-116 colon, in the test on LOX IMVI melanoma, in the test on MDA-MB-435, with RXF 393 renal, in the test on SNB-19 CNS and in the test on UACC-257 melanoma was greater than 100 µM throughout.

In the case of `COc1c(-c2ccc(F)cc2)oc2c(CC(=O)O)cccc2c1=O`, the TGI with HCC-2998 colon, with HCT-116 colon, with MDA-MB-435, with RXF 393 renal and in the test on UACC-257 melanoma was greater than 100 µM each time.

Turning to `Cc1c2c(n3c(nc4ccccc43)c1C#N)NCC2`, the TGI in the test on HCT-116 colon, in the test on LOX IMVI melanoma, in the test on MDA-MB-435, with RXF 393 renal, with SNB-19 CNS and in the test on UACC-257 melanoma was greater than 10 µM each time.

As to `CCOC(=O)c1cc(C2CCN(Cc3ccccc3)C2=O)c(C(=O)/C=C(/C)N)[nH]1` (stereo not drawn), the TGI in the test on HCC-2998 colon, with HCT-116 colon, in the test with MDA-MB-435, with RXF 393 renal, with SNB-19 CNS and in the test with UACC-257 melanoma was greater than 100 µM each time.

For `O=C(O)CCC1(CCC(=O)O)CCCCCCCCC(CCC(=O)O)(CCC(=O)O)C(=O)C1=O`, the total growth inhibition concentration (TGI) in the test on HCC-2998 colon, in the test with HCT-116 colon, with LOX IMVI melanoma, with MDA-MB-435, in the test with SNB-19 CNS and with UACC-257 melanoma was greater than 100 µM in each case.

`COC(=O)CCc1cc(OC)c2oc(-c3ccc(OC)c(OC)c3)c(CO)c2c1`: the TGI in the test on HCC-2998 colon, in the test with HCT-116 colon, in the test on LOX IMVI melanoma, in the test on MDA-MB-435, with SNB-19 CNS and in the test on UACC-257 melanoma was greater than 100 µM throughout.

For `CCCC1(N2C(=O)c3ccc4c5c(ccc(c35)C2=O)N(C2(CCC)CCCCC2)C4=O)CCCCC1`, the TGI with HCC-2998 colon, with HCT-116 colon, with MDA-MB-435, in the test with RXF 393 renal and with SNB-19 CNS was greater than 100 µM throughout.

In the case of `Cc1ccc2nc(-c3nccn3C)cc(C(=O)NC(C)CN(C)C)c2c1` (stereo not drawn), the TGI in the test on HCT-116 colon, in the test on LOX IMVI melanoma, with MDA-MB-435, in the test on RXF 393 renal, with SNB-19 CNS and with UACC-257 melanoma was greater than 100 µM throughout.

With `Cc1cnc2c(c1)C(=O)N(c1ccc(Br)cc1)S2(=O)=O`, the TGI in the test on HCC-2998 colon, in the test on HCT-116 colon, in the test on LOX IMVI melanoma, in the test with MDA-MB-435, in the test with SNB-19 CNS and in the test on UACC-257 melanoma was greater than 100 µM throughout.

For `Clc1ccc2c(c1)CC1C[N+]3=C(CCCCC3)C1=C2` (stereo not drawn), the TGI in the test on HCT-116 colon was greater than 100 µM; with LOX IMVI melanoma, greater than 100 µM; in the test with MDA-MB-435, greater than 100 µM; with RXF 393 renal, greater than 100 µM; with SNB-19 CNS, greater than 100 µM; in the test on UACC-257 melanoma it was 94.1 µM.

Turning to `O=C(O)c1ccccc1/C=N\N(CCO)C1=NCCN1`, the TGI in the test with HCC-2998 colon, with HCT-116 colon, in the test with LOX IMVI melanoma, in the test with MDA-MB-435, in the test with RXF 393 renal and in the test with SNB-19 CNS was greater than 100 µM throughout.

As to `Cc1cc2nc3c(C#N)c4c(c(Cl)n3c2cc1C)CCC4`, the TGI with HCT-116 colon is 29.6 µM; in the test with LOX IMVI melanoma, 32 µM; in the test on MDA-MB-435, 42.5 µM; with RXF 393 renal, 32.1 µM; in the test on UACC-257 melanoma, greater than 100 µM.

In the case of `NC1C2C=CC(C2)C1C(=O)O` (stereo not drawn), the TGI in the test on HCT-116 colon, with LOX IMVI melanoma, in the test on MDA-MB-435, in the test on RXF 393 renal and in the test with SNB-19 CNS was greater than 100 µM in each case.

For `CCCc1cn2c(/C=N/N=C(N)N)c(-c3ccc([N+](=O)[O-])cc3)nc2s1`, the TGI was found to be 2.03 µM in the test on HCC-2998 colon; 1.6 µM with HCT-116 colon; 3.04 µM with LOX IMVI melanoma; 3.1 µM with MDA-MB-435; 2.9 µM with SNB-19 CNS; 3.03 µM with UACC-257 melanoma.

As to `O=C1/C(=C/c2cccc([N+](=O)[O-])c2)Cc2ccccc21`, the TGI with HCT-116 colon, in the test with LOX IMVI melanoma, with MDA-MB-435, in the test with SNB-19 CNS and with UACC-257 melanoma was greater than 100 µM in each case.

In the case of `CC(C)(CN1CCCCC1)C(=O)CC(SCCS(=O)(=O)O)c1ccccc1` (stereo not drawn), the TGI turned out to be 41.8 µM in the test on HCC-2998 colon; 18.2 µM in the test on HCT-116 colon; 29.3 µM in the test on MDA-MB-435; 35 µM in the test with RXF 393 renal; 54.2 µM in the test on SNB-19 CNS.

As to `O=C(/C=C/c1ccc(Cl)cc1)c1nc2ccccc2[nH]1`, the TGI was 25.8 µM with HCC-2998 colon; 36.3 µM in the test on HCT-116 colon; 32.6 µM in the test on LOX IMVI melanoma; 36.2 µM with MDA-MB-435; greater than 100 µM in the test with SNB-19 CNS; greater than 100 µM in the test with UACC-257 melanoma.

For the compound `COc1ccc2nc3c([N+](=O)[O-])ccc4c3c(c2c1)N=CN4CCN(C)C`, the TGI in the test with HCC-2998 colon amounted to 20.3 µM; in the test on HCT-116 colon, 13.6 µM; in the test with LOX IMVI melanoma, 14.6 µM; in the test with MDA-MB-435 it was 25.9 µM; with SNB-19 CNS, 28 µM; in the test on UACC-257 melanoma it was 16.1 µM.
